According to the supplement of paper PMC10307832:

Compound: CN(C)C/C=C/C(=O)Nc1cc2c(Nc3ccc(F)c(Cl)c3)ncnc2cc1O[C@H]1CCOC1 [Afatinib]
Test: relative viability (nuclei count vs DMSO), 5 days (fraction); higher = more cells survive
How it was run: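 Nuclei counted with MetaXpress define viability as the ratio of treated to vehicle wells, given as a median across plates. The lung cancer cell lines were in 1536-well plates, pinned with five √10-spaced library-drug doses and imaged at 4× after 5 days and Hoechst staining. Plates passed with control CV below 25% and at least one doubling.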

Row | Cell Line | relative viability (0.005 µM) | relative viability (0.01581 µM) | relative viability (0.05 µM) | relative viability (0.1581 µM) | relative viability (0.5 µM)
1 | NCI-H661 | 1.02 | 0.863 | 0.831 | 0.626 | 0.691
2 | NCI-H727 | 0.787 | 0.765 | 0.758 | 0.694 | 0.837
3 | NCI-H838 | 1.01 | 0.966 | 0.988 | 0.918 | 1.05
4 | NCI-H1299 | 0.992 | 0.992 | 1.06 | 1.01 | 0.98
5 | NCI-H1355 | 0.976 | 0.959 | 0.943 | 0.849 | 0.893
6 | NCI-H1395 | 1.07 | 0.744 | 1 | 1.05 | 0.849
7 | NCI-H1437 | 1.02 | 0.987 | 0.993 | 0.984 | 0.997
8 | NCI-H1563 | 0.992 | 0.932 | 0.97 | 0.895 | 0.99
9 | NCI-H1648 | 0.881 | 0.765 | 0.437 | 0.478 | 0.457
10 | NCI-H1650 | 0.755 | – | 0.896 | 0.696 | 0.736
11 | NCI-H1651 | 1.07 | 0.949 | 0.941 | 0.961 | 0.915
12 | NCI-H1666 | 0.95 | 0.894 | 0.75 | 0.707 | 0.801
13 | NCI-H1703 | 1.25 | 0.749 | 1.03 | 0.853 | 0.713
14 | NCI-H1734 | 0.998 | 0.979 | 1.02 | 0.968 | 1.03
15 | NCI-H1755 | 0.997 | 0.983 | 1.05 | 1 | 1.02
16 | NCI-H1792 | 1.09 | 0.786 | 0.853 | 0.988 | 0.661
17 | NCI-H1793 | 0.829 | 0.616 | 0.558 | 0.418 | 0.536
18 | NCI-H1915 | 1.06 | 0.988 | 1 | 0.973 | 0.922
19 | NCI-H1944 | 0.916 | 0.906 | 0.794 | 0.575 | 0.73
20 | NCI-H1975 | 0.945 | 0.851 | 0.79 | 0.479 | 0.336

Row | Cell Line | relative viability (0.005 µM) | relative viability (0.01581 µM) | relative viability (0.05 µM) | relative viability (0.1581 µM) | relative viability (0.5 µM)
21 | NCI-H1993 | 0.935 | 0.75 | 0.84 | 0.776 | 0.692
22 | NCI-H2009 | 1.04 | 0.998 | 1.06 | 0.997 | 1.06
23 | NCI-H2023 | 0.968 | 0.85 | 0.898 | 0.882 | 0.886
24 | NCI-H2085 | 0.99 | 0.958 | 0.856 | 0.757 | 0.858
25 | NCI-H2087 | 1.06 | 0.857 | 1.04 | 0.998 | 0.895
26 | NCI-H2126 | 1.01 | 0.932 | 0.816 | 0.679 | 0.693
27 | NCI-H2170 | 0.907 | 0.837 | 0.445 | 0.276 | 0.253
28 | NCI-H2228 | 1.24 | 0.884 | 0.812 | 0.953 | 1.05
29 | NCI-H2342 | 0.896 | 0.936 | 0.889 | 0.826 | 0.726
30 | NCI-H2347 | 1.07 | 1.02 | 0.976 | 0.961 | 0.994
31 | NCI-H2405 | 1.01 | 0.959 | 1.08 | 0.957 | 1.02
32 | NCI-H3122 | 0.999 | 1.01 | 1.01 | 0.929 | 0.999
33 | PC-3 [JPC-3] | 0.553 | 0.406 | 0.443 | 0.439 | 0.469
34 | PC-14 | 0.371 | 0.224 | 0.298 | – | 0.282
35 | RERF-LC-KJ | 0.92 | 0.938 | 0.908 | 0.794 | 0.831
36 | SK-LU-1 | 1.07 | 1 | 1.07 | 1.05 | 1.06
37 | SK-MES-1 | 0.816 | 0.706 | 0.568 | 0.39 | 0.42
38 | SW 900 | 0.951 | 0.692 | 0.844 | 0.872 | 0.828
39 | SW 1573 | 0.978 | 0.962 | 1 | 0.962 | 0.925
40 | UMC-11 | 1.03 | 0.955 | 1.03 | 0.959 | 0.983
